pKi: −log10 of the molar value.

human EP3 receptor, sequence (P43115 whole entry): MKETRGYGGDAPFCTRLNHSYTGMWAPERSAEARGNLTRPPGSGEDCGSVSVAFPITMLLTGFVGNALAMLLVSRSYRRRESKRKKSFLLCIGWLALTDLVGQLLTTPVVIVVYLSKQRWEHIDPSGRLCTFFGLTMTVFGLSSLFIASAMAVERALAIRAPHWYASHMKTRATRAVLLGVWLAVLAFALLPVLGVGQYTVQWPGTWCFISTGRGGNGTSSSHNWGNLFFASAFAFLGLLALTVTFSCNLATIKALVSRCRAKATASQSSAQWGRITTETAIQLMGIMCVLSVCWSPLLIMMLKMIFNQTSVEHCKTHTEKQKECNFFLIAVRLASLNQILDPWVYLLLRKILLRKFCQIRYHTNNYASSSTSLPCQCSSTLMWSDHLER

In the assay the target is human EP3 receptor (Homo sapiens (Human), UniProt P43115). In words: EP3 Radioligand SPA Binding Assay. To be noted: [3H]-PGE2 displacement, Millipore EP3 Chem1 membranes; geometric mean Ki, calculated from IC50 by Cheng-Prusoff. Here is the method:
EP3 Radioligand SPA Binding Assay
Compound affinity was expressed as a […], defined as the concentration of compound required to decrease [^3H] PGE2 binding by 50% for a specific membrane batch at a given concentration of radioligand.
Test compounds were half log serially diluted in 100% DMSO (J. T. Baker #922401). 1 μL of each compound was added to appropriate wells of a 384-well plate (Matrix Cat #4322). Unlabeled PGE2 (Tocris Cat #2296) at a final concentration of 1 μM was used to determine non-specific binding. 1 μL of 100% DMSO (J. T. Baker #922401) was used to determine total binding. Millipore EP3 Chem1 membranes (prepared in-house from cell paste derived from the Millipore ChemiSCREEN™ Human Recombinant EP3 Prostanoid Receptor Calcium-Optimized Stable Cell Line (Millipore Cat #HTS092C. http://www.millipore.com/catalogue/item/hts092c)) were thawed and diluted in binding buffer (50 mM Hepes pH 7.4 (Lonza Cat #17-737), 5 mM MgCl2 (Sigma-M1028), and 0.1% BSA (Sigma A-7409)) to a final concentration of 1 μg/25 μL. 25 μL of diluted membranes were added to prepared compound plates. WGA coated PVT SPA Beads (Perkin Elmer Cat #RPNQ0060) were diluted in binding buffer to a concentration of 4 μg/ul, and 25 μL of the SPA bead mixture was then added to each well for a final assay concentration of 100 μg/well. [^3H]-PGE2 (Perkin Elmer Cat #NET428) was diluted in binding buffer to a concentration of […], and 25 μL was added to all wells for a final assay concentration of 1.125 nM. Plates were incubated for 30 minutes at r.t. (approximately 25° C.) with shaking. Radioactivity associated with each well was measured after a 10 hour incubation using a Wallac Trilux MicroBeta plate-based scintillation counter and a normalized protocol at 1 minute read/well. The Kd for [^3H]-PGE2 was determined by carrying out saturation binding, with data analysis by non-linear regression, fit to a one-site hyperbola (Graph Pad Prism). IC50 determinations were made from competition curves, analyzed with a proprietary curve fitting program (SIGHTS) and a 4-parameter logistic dose response equation. Ki values were calculated from IC50 values, using the Cheng-Prusoff equation.
Results are reported as geometric mean Ki values.
In the case of `CCn1ncc2c(F)cc(-c3ccc([C@@]4(C)CCCNC4=O)c(=O)[nH]3)cc21` [Example 1, (R)-6-(1-ethyl-4-fluoro-1H-indazol-6-yl)-3-(3-methyl-2-oxopiperidin-3-yl)pyridin-2(1H)-one], the pKi is 8.70.

`Cn1ncc2c(Cl)cc(-c3ccc([C@@]4(C)CCCNC4=O)c(=O)[nH]3)cc21` [Example 2, (R)-6-(4-chloro-1-methyl-1H-indazol-6-yl)-3-(3-methyl-2-oxopiperidin-3-yl)pyridin-2(1H)-one]: the negative-log Ki (pKi) is 8.44.

Consider `CCn1ncc2c(C)cc(-c3ccc([C@@]4(C)CCCNC4=O)c(=O)[nH]3)cc21` [Example 3, (R)-6-(1-ethyl-4-methyl-1H-indazol-6-yl)-3-(3-methyl-2-oxopiperidin-3-yl)pyridin-2(1H)-one], for which the pKi is 8.02.

For the molecule `Cn1ccc2ccc(-c3ccc([C@@]4(C)CCCNC4=O)c(=O)[nH]3)cc21` [Example 4, (R)-6-(1-methyl-1H-indol-6-yl)-3-(3-methyl-2-oxopiperidin-3-yl)pyridin-2(1H)-one], the negative-log Ki (pKi) was 7.95.

As to `Cn1ccc2cc(-c3ccc([C@@]4(C)CCCNC4=O)c(=O)[nH]3)ccc21` [Example 5, (R)-6-(1-methyl-1H-indol-5-yl)-3-(3-methyl-2-oxopiperidin-3-yl)pyridin-2(1H)-one], the pKi is 7.91.

As for `Cn1ccc2cc(-c3ccc([C@@]4(C)CCNC4=O)c(=O)[nH]3)ccc21` [Example 6, (R)-6-(1-methyl-1H-indol-5-yl)-3-(3-methyl-2-oxopyrrolidin-3-yl)pyridin-2(1H)-one], the negative logarithm of the Ki (pKi) is 7.34.

As to `Cn1cnc2cc(-c3ccc([C@@]4(C)CCCNC4=O)c(=O)[nH]3)cc(Cl)c21` [Example 7, (R)-6-(7-chloro-1-methyl-1H-benzo[d]imidazol-5-yl)-3-(3-methyl-2-oxopiperidin-3-yl)pyridin-2(1H)-one], the pKi was 8.11.

As to `Cn1ncc2c(Cl)cc(-c3ccc([C@@]4(C)CCNC4=O)c(=O)[nH]3)cc21` [Example 8, (R)-6-(4-chloro-1-methyl-1H-indazol-6-yl)-3-(3-methyl-2-oxopyrrolidin-3-yl)pyridin-2(1H)-one], the pKi is 7.85.

As to `Cn1ccc2cc(-c3ccc([C@@]4(C)CCNC4=O)c(=O)[nH]3)cc(F)c21` [Example 9, (R)-6-(7-fluoro-1-methyl-1H-indol-5-yl)-3-(3-methyl-2-oxopyrrolidin-3-yl)pyridin-2(1H)-one], the pKi is 7.92.

On to `CCn1ccc2ccc(-c3ccc([C@@]4(C)CCNC4=O)c(=O)[nH]3)cc21` [Example 10, (R)-6-(1-ethyl-1H-indol-6-yl)-3-(3-methyl-2-oxopyrrolidin-3-yl)pyridin-2(1H)-one], for which the pKi was 7.70.

Regarding `Cc1cc(-c2ccc([C@@]3(C)CCCNC3=O)c(=O)[nH]2)cc2c1cnn2C` [Example 12, (R)-6-(1,4-dimethyl-1H-indazol-6-yl)-3-(3-methyl-2-oxopiperidin-3-yl)pyridin-2(1H)-one], the pKi is 7.60.

In the case of `C[C@]1(c2ccc(-c3cc(F)c4[nH]nc(C5CC5)c4c3)[nH]c2=O)CCCNC1=O` [Example 14, (R)-6-(3-cyclopropyl-7-fluoro-1H-indazol-5-yl)-3-(3-methyl-2-oxopiperidin-3-yl)pyridin-2(1H)-one], the negative-log Ki (pKi) is 7.53.

For orientation: pKi means −log10 of the Ki, conventionally taken in molar units.

Source of the values: patent US9278953B2, “Antagonists of prostaglandin EP3 receptor” (Pfizer Inc., priority 2013, dated 2016).
